In one assay the target is T1, S100B (Homo sapiens, UniProt P04271).
T1 construct: made in house; host or cells: Escherichia coli BL21(DE3)
T1 sequence (P04271 1-92): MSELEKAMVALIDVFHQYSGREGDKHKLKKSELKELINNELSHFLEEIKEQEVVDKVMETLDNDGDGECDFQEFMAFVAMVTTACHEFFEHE
Briefly: Pull-down assay with immobilized protein and LSM libraries. The note with it: H14 library; 1:1 binding assumed; read-out: Surface mapping KD (apparent). In kind it is binding. The gist of the method: (§1)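 Buffers were HEPES pH 7.4 with 150 mM NaCl, plus 1 mM TCEP and 1 mM CaCl2 (50 mM HEPES) for S100A4 and S100B, 1 mM TCEP for Gal-1, and no additive for RecQ-WH. Immobilized protein at 64 µM was equilibrated 30 min with the LSM sublibrary, and unbound probes were measured by LC-MS.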

The target in assay [1] is T2, CaM (Bos taurus, UniProt P62157).
T2 construct: made in house; host or cells: E. coli BL21 (DE3)
The description is as above. Format: binding, bovine. The note with it: H14 library; 1:2 stoichiometry assumed; read-out: Surface mapping KD (apparent). The gist of the method: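 CaM buffer was 20 mM HEPES pH 7.4, 150 mM NaCl, 5 mM CaCl2. LSM sublibrary members ([…]) incubated 30 min, RT, with equimolar His-tagged protein on Co-NTA resin. HPLC-MS measured unbound probes; bound fraction relative to resin-only background gave dissociation constants.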

For assay [2], the target named is T2, CaM. Put plainly: Competition pull-down with native ligand TRPV1-Ct15. Format: binding, bovine. The note with it: H14 library; competitor peptide 200 µM; read-out: Surface mapping KD (apparent), competition.
For assay [3], the target named is T3, Gal-1 (Homo sapiens, UniProt P09382).
T3 construct: made in house; host or cells: E. coli BL21(DE3)
Briefly: Competition pull-down with lactose. In kind it is binding. The note with it: H14 library; lactose 10 mM; read-out: Surface mapping KD (apparent), competition. In a few lines:
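His6-tagged proteins immobilized on Co-NTA resin at 64 µM final with 64-member LSM foldamer sublibraries (1 M each, as printed) in pH 7.4 HEPES/NaCl buffers (Ca2+/TCEP per target), 30 min RT; competitor peptides 200 µM final, lactose 10 mM for Gal-1. Bound fractions from LC-MS loss vs protein-free resin; KD assuming 1:1 binding.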

In a further assay the target is T4, S100A4 (Homo sapiens, UniProt P26447).
T4 construct: made in house; host or cells: Escherichia coli BL21(DE3)
Put plainly: Pull-down assay with immobilized protein and LSM libraries. In kind it is binding. The note with it: H14 library; 1:1 binding assumed; read-out: Surface mapping KD (apparent). The gist of the method: as §1

The target in assay [4] is T3, Gal-1. The assay is described as above. Format: binding. The note with it: H14 library; 1:1 binding assumed; read-out: Surface mapping KD (apparent). The gist of the method: as §1

T3 sequence (P09382 whole entry): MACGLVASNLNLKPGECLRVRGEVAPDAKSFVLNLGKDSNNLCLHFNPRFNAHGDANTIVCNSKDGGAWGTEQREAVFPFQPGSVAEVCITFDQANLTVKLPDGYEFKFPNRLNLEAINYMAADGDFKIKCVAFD
T4 sequence (P26447 whole entry): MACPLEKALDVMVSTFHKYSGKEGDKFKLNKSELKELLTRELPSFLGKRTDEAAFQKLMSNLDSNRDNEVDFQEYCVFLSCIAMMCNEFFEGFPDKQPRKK

For `NCCCC[C@@H](CC(=O)N[C@H]1CCCC[C@@H]1C(N)=O)NC(=O)[C@H]1CCCC[C@@H]1NC(=O)[C@H]1CCCC[C@@H]1NC(=O)C[C@H](CC(N)=O)NC(=O)[C@H]1CCCC[C@@H]1N` [H14 NK], the Kd on S100B was 270 µM; on CaM [1], 82 µM; at CaM [2], 254 µM; at Gal-1 [3] it was 342 µM.

Take `CC(C)[C@@H](CC(=O)N[C@H]1CCCC[C@@H]1C(N)=O)NC(=O)[C@H]1CCCC[C@@H]1NC(=O)[C@H]1CCCC[C@@H]1NC(=O)C[C@H](CC(N)=O)NC(=O)[C@H]1CCCC[C@@H]1N` [H14 NV]: the Kd at S100A4 was determined as 395 µM; on Gal-1 [4] it was 349 µM; on CaM [1], 115 µM; at CaM [2], 261 µM; at Gal-1 [3], 378 µM.

Turning to `NC(=O)C[C@@H](CC(=O)N[C@H]1CCCC[C@@H]1C(=O)N[C@H]1CCCC[C@@H]1C(=O)N[C@H](CC(=O)N[C@H]1CCCC[C@@H]1C(N)=O)Cc1c[nH]c2ccccc12)NC(=O)[C@H]1CCCC[C@@H]1N` [H14 NW], the Kd on S100B stood at 98 µM; at Gal-1 [4] it was 169 µM; on CaM [1] it was 38 µM; on CaM [2] it was 269 µM; on Gal-1 [3], 185 µM.

Regarding `C[C@@H](O)[C@@H](CC(=O)N[C@H]1CCCC[C@@H]1C(N)=O)NC(=O)[C@H]1CCCC[C@@H]1NC(=O)[C@H]1CCCC[C@@H]1NC(=O)C[C@H](CO)NC(=O)[C@H]1CCCC[C@@H]1N` [H14 ST], the Kd on S100A4 amounted to 323 µM; on CaM [1], 215 µM; on CaM [2], 307 µM; on Gal-1 [3] it was 413 µM.

On to `N=C(N)NCCC[C@@H](CC(=O)N[C@H]1CCCC[C@@H]1C(N)=O)NC(=O)[C@H]1CCCC[C@@H]1NC(=O)[C@H]1CCCC[C@@H]1NC(=O)C[C@H](CO)NC(=O)[C@H]1CCCC[C@@H]1N` [H14 SR], for which the Kd on S100B was 76 µM; at S100A4, 188 µM; at Gal-1 [4], 156 µM; on CaM [1] it was 75 µM; at CaM [2] it was 174 µM; on Gal-1 [3] it was 349 µM.

In the case of `C[C@@H](CC(=O)N[C@H]1CCCC[C@@H]1C(N)=O)NC(=O)[C@H]1CCCC[C@@H]1NC(=O)[C@H]1CCCC[C@@H]1NC(=O)C[C@@H](NC(=O)[C@H]1CCCC[C@@H]1N)[C@@H](C)O` [H14 TA], the Kd on S100A4 was determined as 338 µM; at Gal-1 [4] it was 425 µM; on CaM [1], 244 µM; at CaM [2], 398 µM; on Gal-1 [3], 426 µM.

With `NCCCC[C@@H](CC(=O)N[C@H]1CCCC[C@@H]1C(N)=O)NC(=O)[C@H]1CCCC[C@@H]1NC(=O)[C@H]1CCCC[C@@H]1NC(=O)C[C@H](CCC(N)=O)NC(=O)[C@H]1CCCC[C@@H]1N` [H14 QK], the Kd at S100B amounted to 81 µM; at S100A4 it was 382 µM; on Gal-1 [4], 158 µM; at CaM [1], 96 µM; on CaM [2] it was 208 µM; on Gal-1 [3], 146 µM.

Consider `CSCC[C@@H](CC(=O)N[C@H]1CCCC[C@@H]1C(N)=O)NC(=O)[C@H]1CCCC[C@@H]1NC(=O)[C@H]1CCCC[C@@H]1NC(=O)C[C@H](CO)NC(=O)[C@H]1CCCC[C@@H]1N` [H14 SM], for which the Kd came to 26 µM at S100A4; 356 µM on Gal-1 [4]; 43 µM at CaM [1]; 210 µM on CaM [2]; 352 µM on Gal-1 [3].

Take `NC(=O)C[C@@H](CC(=O)N[C@H]1CCCC[C@@H]1C(=O)N[C@H]1CCCC[C@@H]1C(=O)N[C@H](CC(=O)N[C@H]1CCCC[C@@H]1C(N)=O)Cc1ccccc1)NC(=O)[C@H]1CCCC[C@@H]1N` [H14 NF]: the Kd at S100B came to 123 µM; on Gal-1 [4], 264 µM; on CaM [1], 45 µM; on CaM [2], 339 µM; on Gal-1 [3], 250 µM.

Turning to `CSCC[C@@H](CC(=O)N[C@H]1CCCC[C@@H]1C(N)=O)NC(=O)[C@H]1CCCC[C@@H]1NC(=O)[C@H]1CCCC[C@@H]1NC(=O)C[C@H](CCC(N)=O)NC(=O)[C@H]1CCCC[C@@H]1N` [H14 QM], the Kd is 448 µM at S100A4; 364 µM on Gal-1 [4]; 51 µM at CaM [1]; 317 µM on CaM [2]; 406 µM on Gal-1 [3].

For `CC(C)C[C@@H](CC(=O)N[C@H]1CCCC[C@@H]1C(N)=O)NC(=O)[C@H]1CCCC[C@@H]1NC(=O)[C@H]1CCCC[C@@H]1NC(=O)C[C@H](CC(N)=O)NC(=O)[C@H]1CCCC[C@@H]1N` [H14 NL], the Kd at S100A4 amounted to 472 µM; at Gal-1 [4], 259 µM; at CaM [1] it was 76 µM; on CaM [2] it was 345 µM; at Gal-1 [3] it was 338 µM.

In the case of `CC(C)[C@@H](CC(=O)N[C@H]1CCCC[C@@H]1C(N)=O)NC(=O)[C@H]1CCCC[C@@H]1NC(=O)[C@H]1CCCC[C@@H]1NC(=O)C[C@H](CO)NC(=O)[C@H]1CCCC[C@@H]1N` [H14 SV], the Kd on S100A4 was found to be 34 µM; at Gal-1 [4], 221 µM; on CaM [1], 101 µM; at CaM [2], 398 µM; at Gal-1 [3], 476 µM.

Take `CC[C@H](C)[C@@H](CC(=O)N[C@H]1CCCC[C@@H]1C(N)=O)NC(=O)[C@H]1CCCC[C@@H]1NC(=O)[C@H]1CCCC[C@@H]1NC(=O)C[C@H](CC(N)=O)NC(=O)[C@H]1CCCC[C@@H]1N` [H14 NI]: the Kd at S100A4 amounted to 472 µM; at Gal-1 [4], 258 µM; on CaM [1], 80 µM; on CaM [2], 283 µM; on Gal-1 [3] it was 323 µM.

As to `CC[C@H](C)[C@@H](CC(=O)N[C@H]1CCCC[C@@H]1C(N)=O)NC(=O)[C@H]1CCCC[C@@H]1NC(=O)[C@H]1CCCC[C@@H]1NC(=O)C[C@H](CCC(N)=O)NC(=O)[C@H]1CCCC[C@@H]1N` [H14 QI], the Kd on S100A4 turned out to be 256 µM; at Gal-1 [4], 456 µM; on CaM [1], 82 µM; on CaM [2], 241 µM; at Gal-1 [3], 486 µM.

Turning to `CC(C)C[C@@H](CC(=O)N[C@H]1CCCC[C@@H]1C(N)=O)NC(=O)[C@H]1CCCC[C@@H]1NC(=O)[C@H]1CCCC[C@@H]1NC(=O)C[C@H](CCC(N)=O)NC(=O)[C@H]1CCCC[C@@H]1N` [H14 QL], the Kd at S100A4 was 256 µM; at Gal-1 [4], 457 µM; at CaM [1], 87 µM; at CaM [2], 241 µM; on Gal-1 [3] it was 458 µM.

For the compound `C[C@@H](CC(=O)N[C@H]1CCCC[C@@H]1C(N)=O)NC(=O)[C@H]1CCCC[C@@H]1NC(=O)[C@H]1CCCC[C@@H]1NC(=O)C[C@H](CCC(N)=O)NC(=O)[C@H]1CCCC[C@@H]1N` [H14 QA], the Kd on Gal-1 [4] was determined as 349 µM; on CaM [1], 174 µM; at CaM [2], 211 µM; on Gal-1 [3] it was 444 µM.

For the compound `NC(=O)CC[C@@H](CC(=O)N[C@H]1CCCC[C@@H]1C(=O)N[C@H]1CCCC[C@@H]1C(=O)N[C@@H](CCC(=O)O)CC(=O)N[C@H]1CCCC[C@@H]1C(N)=O)NC(=O)[C@H]1CCCC[C@@H]1N` [H14 QE], the Kd turned out to be 295 µM on Gal-1 [4], 221 µM at CaM [1], 246 µM on CaM [2] and 380 µM on Gal-1 [3].

For the compound `N=C(N)NCCC[C@@H](CC(=O)N[C@H]1CCCC[C@@H]1C(N)=O)NC(=O)[C@H]1CCCC[C@@H]1NC(=O)[C@H]1CCCC[C@@H]1NC(=O)C[C@H](CC(N)=O)NC(=O)[C@H]1CCCC[C@@H]1N` [H14 NR], the Kd on S100B amounted to 128 µM; at Gal-1 [4], 114 µM; at CaM [1] it was 58 µM; on CaM [2], 434 µM; on Gal-1 [3], 247 µM.

Turning to `NC(=O)C[C@@H](CC(=O)N[C@H]1CCCC[C@@H]1C(=O)N[C@H]1CCCC[C@@H]1C(=O)N[C@@H](CC(=O)O)CC(=O)N[C@H]1CCCC[C@@H]1C(N)=O)NC(=O)[C@H]1CCCC[C@@H]1N` [H14 ND], the Kd was found to be 229 µM on Gal-1 [4], 211 µM on CaM [1], 471 µM on CaM [2] and 294 µM on Gal-1 [3].

Take `C[C@@H](O)[C@@H](CC(=O)N[C@H]1CCCC[C@@H]1C(=O)N[C@H]1CCCC[C@@H]1C(=O)N[C@H](CC(=O)N[C@H]1CCCC[C@@H]1C(N)=O)Cc1ccc(O)cc1)NC(=O)[C@H]1CCCC[C@@H]1N` [H14 TY]: the Kd at S100B was 180 µM; on Gal-1 [4] it was 297 µM; at CaM [1], 84 µM; at CaM [2] it was 226 µM; at Gal-1 [3] it was 338 µM.

Take `CC(C)[C@@H](CC(=O)N[C@H]1CCCC[C@@H]1C(N)=O)NC(=O)[C@H]1CCCC[C@@H]1NC(=O)[C@H]1CCCC[C@@H]1NC(=O)C[C@H](CCCNC(=N)N)NC(=O)[C@H]1CCCC[C@@H]1N` [H14 RV]: the Kd is 63 µM on S100B; 72 µM at S100A4; 26 µM at CaM [1]; 219 µM on CaM [2]; 418 µM on Gal-1 [3].

(Values after publication PMC8162404, “Proteomimetic surface fragments distinguish targets by function” (Chemical Science, 2020).)
